Legend:
Format in all cases: functional
K562 = assay: Growth inhibition of human K562 cells assessed as cell growth at 0.01 uM after 48 hrs by SRB assay relative to control; details: K562, 48 h, read-out: Activity
MOLT-4 = assay: Growth inhibition of human MOLT4 cells assessed as cell growth at 0.01 uM after 48 hrs by SRB assay relative to control; details: MOLT-4, 48 h, read-out: Activity
COLO 205 [1] = assay: Growth inhibition of human COLO205 cells assessed as cell growth at 0.01 uM after 48 hrs by SRB assay relative to control; details: COLO 205, 48 h, read-out: Activity
SK-MEL-5 [2] = assay: Growth inhibition of human SK-MEL-5 cells assessed as cell growth at 0.01 uM after 48 hrs by SRB assay relative to control; details: SK-MEL-5, 48 h, read-out: Activity
OVCAR-3 = assay: Growth inhibition of human OVCAR3 cells assessed as cell growth at 0.01 uM after 48 hrs by SRB assay relative to control; details: OVCAR-3, 48 h, read-out: Activity
OVCAR-8 = assay: Growth inhibition of human OVCAR8 cells assessed as cell growth at 0.01 uM after 48 hrs by SRB assay relative to control; details: OVCAR-8, 48 h, read-out: Activity
A549 = assay: Growth inhibition of human A549/ATCC cells assessed as cell growth at 0.1 uM after 48 hrs by SRB assay relative to control; details: A549, 48 h, read-out: Activity
NCI-H522 = assay: Growth inhibition of human NCI-H522 cells assessed as cell growth at 0.1 uM after 48 hrs by SRB assay relative to control; details: NCI-H522, 48 h, read-out: Activity
MDA-MB-435 = assay: Growth inhibition of human MDA-MB-435 cells assessed as cell growth at 0.1 uM after 48 hrs by SRB assay relative to control; details: MDA-MB-435, 48 h, read-out: Activity
A498 = assay: Growth inhibition of human A498 cells assessed as cell growth at 0.1 uM after 48 hrs by SRB assay relative to control; details: A498, 48 h, read-out: Activity
SN12C = assay: Growth inhibition of human SN12C cells assessed as cell growth at 0.1 uM after 48 hrs by SRB assay relative to control; details: read-out: Activity
PC-3 = assay: Growth inhibition of human PC3 cells assessed as cell growth at 0.1 uM after 48 hrs by SRB assay relative to control; details: PC-3, 48 h, read-out: Activity
DU-145 = assay: Growth inhibition of human DU145 cells assessed as cell growth at 0.1 uM after 48 hrs by SRB assay relative to control; details: DU-145, 48 h, read-out: Activity
NCI-H322M [3] = assay: Growth inhibition of human NCI-H322M cells assessed as cell growth at 1 uM after 48 hrs by SRB assay relative to control; details: read-out: Activity
COLO 205 [4] = assay: Growth inhibition of human COLO205 cells assessed as cell growth at 1 uM after 48 hrs by SRB assay relative to control; details: COLO 205, 48 h, read-out: Activity
SW-620 = assay: Growth inhibition of human SW620 cells assessed as cell growth at 1 uM after 48 hrs by SRB assay relative to control; details: SW-620, 48 h, read-out: Activity
SF-268 [5] = assay: Growth inhibition of human SF268 cells assessed as cell growth at 1 uM after 48 hrs by SRB assay relative to control; details: SF-268, 48 h, read-out: Activity
SF-295 [6] = assay: Growth inhibition of human SF295 cells assessed as cell growth at 1 uM after 48 hrs by SRB assay relative to control; details: SF-295, 48 h, read-out: Activity
UACC-257 = assay: Growth inhibition of human UACC257 cells assessed as cell growth at 1 uM after 48 hrs by SRB assay relative to control; details: UACC-257, 48 h, read-out: Activity
UO-31 = assay: Growth inhibition of human UO31 cells assessed as cell growth at 1 uM after 48 hrs by SRB assay relative to control; details: UO-31, 48 h, read-out: Activity
MCF7 = assay: Growth inhibition of human MCF7 cells assessed as cell growth at 1 uM after 48 hrs by SRB assay relative to control; details: MCF7, 48 h, read-out: Activity
Hs-578T = assay: Growth inhibition of human Hs 578T cells assessed as cell growth at 1 uM after 48 hrs by SRB assay relative to control; details: read-out: Activity
SF-268 [7] = assay: Growth inhibition of human SF268 cells assessed as cell growth at 10 uM after 48 hrs by SRB assay relative to control; details: SF-268, 48 h, read-out: Activity
SF-295 [8] = assay: Growth inhibition of human SF295 cells assessed as cell growth at 10 uM after 48 hrs by SRB assay relative to control; details: SF-295, 48 h, read-out: Activity
SK-MEL-5 [9] = assay: Growth inhibition of human SK-MEL-5 cells assessed as cell growth at 10 uM after 48 hrs by SRB assay relative to control; details: SK-MEL-5, 48 h, read-out: Activity
UACC-62 [10] = assay: Growth inhibition of human UACC62 cells assessed as cell growth at 10 uM after 48 hrs by SRB assay relative to control; details: UACC-62, 48 h, read-out: Activity
IGROV-1 = assay: Growth inhibition of human IGROV1 cells assessed as cell growth at 10 uM after 48 hrs by SRB assay relative to control; details: IGROV-1, 48 h, read-out: Activity
OVCAR-5 = assay: Growth inhibition of human OVCAR5 cells assessed as cell growth at 10 uM after 48 hrs by SRB assay relative to control; details: OVCAR-5, 48 h, read-out: Activity
MDA-MB-468 = assay: Growth inhibition of human MDA-MB-468 cells assessed as cell growth at 10 uM after 48 hrs by SRB assay relative to control; details: MDA-MB-468, 48 h, read-out: Activity
HOP-62 = assay: Growth inhibition of human HOP62 cells assessed as cell growth at 100 uM after 48 hrs by SRB assay relative to control; details: HOP-62, 48 h, read-out: Activity
SF-295 [11] = assay: Growth inhibition of human SF295 cells assessed as cell growth at 100 uM after 48 hrs by SRB assay relative to control; details: SF-295, 48 h, read-out: Activity
CAKI-1 = assay: Growth inhibition of human Caki1 cells assessed as cell growth at 100 uM after 48 hrs by SRB assay relative to control; details: CAKI-1, 48 h, read-out: Activity
NCI-H322M [12] = assay: Cytotoxicity against human NCI-H322M cells assessed as growth inhibition after 48 hrs by SRB assay
UACC-62 [13] = assay: Cytotoxicity against human UACC62 cells assessed as growth inhibition after 48 hrs by SRB assay; details: UACC-62, 48 h
[14] = read-out: LC50 (the source's name)
[15] = read-out: pLC50 (the source's name) (converted)

Compound: COc1ccc2c(c1)CCc1n[nH]c(-c3cc(OC)c(OC)c(OC)c3)c1-2
- growth at 0.01 µM (K562): 19%
- growth at 0.01 µM (MOLT-4): 41%
- growth at 0.01 µM (COLO 205 [1]): -23%
- growth at 0.01 µM (SK-MEL-5 [2]): -6%
- growth at 0.01 µM (OVCAR-3): 14%
- growth at 0.01 µM (OVCAR-8): 15%
- growth at 0.1 µM (A549): 11%
- growth at 0.1 µM (NCI-H522): -18%
- growth at 0.1 µM (MDA-MB-435): -39%
- growth at 0.1 µM (A498): -15%
- growth at 0.1 µM (SN12C): 35%
- growth at 0.1 µM (PC-3): 19%
- growth at 0.1 µM (DU-145): 10%
- growth at 1 µM (NCI-H322M [3]): 42%
- growth at 1 µM (COLO 205 [4]): -56%
- growth at 1 µM (SW-620): 14%
- growth at 1 µM (SF-268 [5]): 29%
- growth at 1 µM (SF-295 [6]): 5%
- growth at 1 µM (UACC-257): 62%
- growth at 1 µM (UO-31): 28%
- growth at 1 µM (MCF7): 12%
- growth at 1 µM (Hs-578T): 18%
- growth at 10 µM (SF-268 [7]): 18%
- growth at 10 µM (SF-295 [8]): -5%
- growth at 10 µM (SK-MEL-5 [9]): -21%
- growth at 10 µM (UACC-62 [10]): 10%
- growth at 10 µM (IGROV-1): 20%
- growth at 10 µM (OVCAR-5): 31%
- growth at 10 µM (MDA-MB-468): -5%
- growth at 100 µM (HOP-62): -76%
- growth at 100 µM (SF-295 [11]): -61%
- growth at 100 µM (CAKI-1): -20%
- GI50 (NCI-H322M [12]; read-out: GI50): < 0.01 µM
- CC50 (NCI-H322M [12]; [14]): > 100 µM
- TGI (NCI-H322M [12]; read-out: TGI): 39.5 µM
- GI50 (NCI-H322M [12]; read-out: pGI50 (converted)): < 0.01 µM
- CC50 (NCI-H322M [12]; [15]): > 100 µM
- TGI (NCI-H322M [12]; read-out: pTGI (converted)): 39.8 µM
- GI50 (UACC-62 [13]; read-out: GI50): < 0.01 µM
- CC50 (UACC-62 [13]; [14]): 50 µM
- TGI (UACC-62 [13]; read-out: TGI): 13 µM
- GI50 (UACC-62 [13]; read-out: pGI50 (converted)): < 0.01 µM
- CC50 (UACC-62 [13]; [15]): 50.1 µM
- TGI (UACC-62 [13]; read-out: pTGI (converted)): 12.9 µM
